Measured values reported in patent US11590167B2, “Methods and compositions for use of therapeutic T cells in combination with kinase inhibitors” (Juno Therapeutics, Inc., priority 2016, dated 2023).

What was measured:
anti-CD19 CAR T cells [1] = experiment: TH1 phenotype of anti-CD19 CAR T cells in serial restimulation assay (flow cytometry); assay type: cell-based, human; conditions: 18-day serial stimulation, three donors; 500 nM ibrutinib (P<0.01); compound of Formula (II) treatment
Procedure: A serial restimulation assay was performed as described above and cells were harvested at various times and analyzed by flow cytometry to assess percentage of TH1-phenotype (assessed as CD4+CXCR3+CRTH2-) T cells or TH2-phenotype (assessed as CD4+CXCR3-CRTH2+).

[2] = tested on: EGFRt+ CAR T cells and/or tumor cells; experiment: CAR+ T cell and tumor cell counts in blood and bone marrow of Nalm-6 bearing mice; assay type: in vivo, NSG mice
Procedure: NSG mice described in Example 2 were intravenously injected on day 0 with 5×10^5 Nalm-6 cells expressing firefly luciferase. […] A bridging experiment confirmed that administration of ibrutinib by drinking water was equivalent to oral gavage administration (data not shown). To permit assessment of the effect of a combination therapy with the inhibitor, a suboptimal dose of anti-CD19 CAR T cells was i.v. injected into the mice at 5×10^5/mouse at day 5. As a control, mice were administered the vehicle control without administration of the CAR-T cells or inhibitor.

CAR T cells = experiment: Activation and memory markers of CAR T cells from the serial stimulation assay (flow cytometry); assay type: cell-based, human; conditions: days 0, 11, 18 and 21 of serial stimulation
Itk = biological target: T1, Itk (Homo sapiens, UniProt Q08881); conditions: reported, Byrd et al. 2016; cited from earlier work
T1 sequence (Q08881 1-620): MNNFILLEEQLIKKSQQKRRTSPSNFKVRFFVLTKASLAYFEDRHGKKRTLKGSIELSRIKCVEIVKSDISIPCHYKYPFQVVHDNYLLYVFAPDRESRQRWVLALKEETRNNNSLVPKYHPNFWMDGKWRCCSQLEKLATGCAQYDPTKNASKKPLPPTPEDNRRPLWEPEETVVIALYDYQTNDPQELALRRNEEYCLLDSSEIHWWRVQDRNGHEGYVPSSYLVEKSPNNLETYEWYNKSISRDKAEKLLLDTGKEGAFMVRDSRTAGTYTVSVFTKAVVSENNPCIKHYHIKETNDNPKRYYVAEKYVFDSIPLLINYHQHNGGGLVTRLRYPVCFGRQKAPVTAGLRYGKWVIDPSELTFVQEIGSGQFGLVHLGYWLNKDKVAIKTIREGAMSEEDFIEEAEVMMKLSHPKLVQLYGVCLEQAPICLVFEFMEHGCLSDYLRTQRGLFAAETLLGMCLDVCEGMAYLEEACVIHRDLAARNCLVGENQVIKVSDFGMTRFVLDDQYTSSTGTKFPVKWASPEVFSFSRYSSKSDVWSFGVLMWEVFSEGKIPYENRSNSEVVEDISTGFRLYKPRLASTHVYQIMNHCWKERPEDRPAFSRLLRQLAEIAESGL

anti-CD19 CAR T cells [3] = experiment: Cytokine production by anti-CD19 CAR T cells co-cultured with irradiated K562-CD19 (MSD); assay type: cell-based, human
Procedure: CAR-T cells generated as described above were plated at 100,000 cells/well on 96 well Poly-D-Lysine coated plates. Irradiated target cells (K562-CD19) were added at an effector to target ratio of 2.5:1. […] Culture supernatants were harvested at day 2, 3 or 4, and IFNγ, IL-2 and TNFa were measured from the culture supernatants using cytokine kits from Meso Scale Discovery (MSD).

CC#CC(=O)N1CCC[C@H]1c1nc(-c2ccc(C(=O)Nc3ccccn3)cc2)c2c(N)nccn12 [compound of Formula (II)]
percentage of TH1 cells (anti-CD19 CAR T cells [1]): no significant effects were observed
tumor cells in the blood or bone marrow compared to CAR+ cells with vehicle alone ([2]; CAR+ cell treatment combined with inhibitor): significantly fewer tumor cells were detected
circulating CAR+ T cells compared to CAR+ T cells and vehicle ([2]; blood, days 7, 12, 19 and 26 post CAR+ T cell transfer, drinking water 25 mg/kg/day): significant increase in circulating CAR+ T cells
number of cells in the blood ([2]; day 19 post CAR-T cell transfer, ibrutinib p<0.05, Formula (II) p<0.001): significant increase in the number of cells in the blood
additional CAR T activation or memory markers (CD25, CD38, CD39, CD45RO, CD62L, CD69, CD107a, PD-1) (CAR T cells): No significant effects
lower affinity for ITK compared with ibrutinib (Itk): > 200 times
CAR T cytokine production (IFNγ, IL-2, TNFα) following stimulation with K562.CD19 cells (anti-CD19 CAR T cells [3]; overall, three donors, culture supernatants, ibrutinib 0.5-500 nM, Formula (II) 50-5000 nM): did not inhibit CAR T cytokine production
cytokine production (anti-CD19 CAR T cells [3]; some donors, compound of Formula (II)): modestly increased cytokine production in some donors
